Experiments:
[1] = target: Receptor tyrosine-protein kinase erbB-3 (Homo sapiens) (UniProt P21860); experiment: Inhibition of ERBB3 (unknown origin) assessed as residual activity at 100 nM by KINOMEscan analysis relative to control
[2] = target: T1, Serine/threonine-protein kinase ICK (Homo sapiens) (UniProt Q9UPZ9); experiment: Inhibition of ICK (unknown origin) assessed as residual activity at 100 nM by KINOMEscan analysis relative to control
T1 sequence (whole entry): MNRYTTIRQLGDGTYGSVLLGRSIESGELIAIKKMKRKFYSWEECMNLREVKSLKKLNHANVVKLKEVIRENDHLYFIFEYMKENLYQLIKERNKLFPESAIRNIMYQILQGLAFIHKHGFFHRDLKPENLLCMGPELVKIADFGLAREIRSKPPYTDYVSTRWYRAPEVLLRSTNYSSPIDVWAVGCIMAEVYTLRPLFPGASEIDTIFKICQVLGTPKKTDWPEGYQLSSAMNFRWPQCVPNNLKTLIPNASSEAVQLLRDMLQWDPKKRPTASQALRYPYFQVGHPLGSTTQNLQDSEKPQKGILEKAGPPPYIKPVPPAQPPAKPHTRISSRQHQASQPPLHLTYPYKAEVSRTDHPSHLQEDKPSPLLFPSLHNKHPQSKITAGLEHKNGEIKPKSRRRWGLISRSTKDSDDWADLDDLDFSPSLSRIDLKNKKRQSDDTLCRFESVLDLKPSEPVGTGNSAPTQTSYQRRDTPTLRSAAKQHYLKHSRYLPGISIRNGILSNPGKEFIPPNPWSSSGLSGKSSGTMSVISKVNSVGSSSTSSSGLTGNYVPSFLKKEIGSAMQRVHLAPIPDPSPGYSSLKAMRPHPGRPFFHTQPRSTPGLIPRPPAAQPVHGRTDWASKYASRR

[3] = target: T2, 3-phosphoinositide-dependent protein kinase 1 (Homo sapiens) (UniProt O15530); experiment: Inhibition of PDPK1 (unknown origin) assessed as residual activity at 100 nM by KINOMEscan analysis relative to control
T2 sequence (whole entry): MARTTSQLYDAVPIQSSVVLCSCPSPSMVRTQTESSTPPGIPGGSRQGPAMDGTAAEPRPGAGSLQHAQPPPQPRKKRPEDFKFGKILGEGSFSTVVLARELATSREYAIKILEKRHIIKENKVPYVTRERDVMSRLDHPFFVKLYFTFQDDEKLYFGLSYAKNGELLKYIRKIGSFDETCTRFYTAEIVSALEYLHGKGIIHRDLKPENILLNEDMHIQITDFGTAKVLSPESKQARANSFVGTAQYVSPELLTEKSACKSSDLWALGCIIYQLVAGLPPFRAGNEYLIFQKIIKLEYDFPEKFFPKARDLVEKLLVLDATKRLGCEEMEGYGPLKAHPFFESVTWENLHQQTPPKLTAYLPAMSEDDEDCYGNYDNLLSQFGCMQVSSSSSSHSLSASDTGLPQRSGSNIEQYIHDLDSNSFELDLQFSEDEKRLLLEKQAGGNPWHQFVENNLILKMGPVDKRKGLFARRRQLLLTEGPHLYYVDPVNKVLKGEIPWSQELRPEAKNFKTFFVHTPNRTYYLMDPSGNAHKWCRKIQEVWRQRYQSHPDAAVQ

[4] = target: Proto-oncogene tyrosine-protein kinase receptor Ret (Homo sapiens) (UniProt P07949); experiment: Inhibition of RET (unknown origin) assessed as residual activity at 100 nM by KINOMEscan analysis relative to control
Proto-oncogene tyrosine-protein kinase receptor Ret (Homo sapiens), sequence (P07949 whole entry): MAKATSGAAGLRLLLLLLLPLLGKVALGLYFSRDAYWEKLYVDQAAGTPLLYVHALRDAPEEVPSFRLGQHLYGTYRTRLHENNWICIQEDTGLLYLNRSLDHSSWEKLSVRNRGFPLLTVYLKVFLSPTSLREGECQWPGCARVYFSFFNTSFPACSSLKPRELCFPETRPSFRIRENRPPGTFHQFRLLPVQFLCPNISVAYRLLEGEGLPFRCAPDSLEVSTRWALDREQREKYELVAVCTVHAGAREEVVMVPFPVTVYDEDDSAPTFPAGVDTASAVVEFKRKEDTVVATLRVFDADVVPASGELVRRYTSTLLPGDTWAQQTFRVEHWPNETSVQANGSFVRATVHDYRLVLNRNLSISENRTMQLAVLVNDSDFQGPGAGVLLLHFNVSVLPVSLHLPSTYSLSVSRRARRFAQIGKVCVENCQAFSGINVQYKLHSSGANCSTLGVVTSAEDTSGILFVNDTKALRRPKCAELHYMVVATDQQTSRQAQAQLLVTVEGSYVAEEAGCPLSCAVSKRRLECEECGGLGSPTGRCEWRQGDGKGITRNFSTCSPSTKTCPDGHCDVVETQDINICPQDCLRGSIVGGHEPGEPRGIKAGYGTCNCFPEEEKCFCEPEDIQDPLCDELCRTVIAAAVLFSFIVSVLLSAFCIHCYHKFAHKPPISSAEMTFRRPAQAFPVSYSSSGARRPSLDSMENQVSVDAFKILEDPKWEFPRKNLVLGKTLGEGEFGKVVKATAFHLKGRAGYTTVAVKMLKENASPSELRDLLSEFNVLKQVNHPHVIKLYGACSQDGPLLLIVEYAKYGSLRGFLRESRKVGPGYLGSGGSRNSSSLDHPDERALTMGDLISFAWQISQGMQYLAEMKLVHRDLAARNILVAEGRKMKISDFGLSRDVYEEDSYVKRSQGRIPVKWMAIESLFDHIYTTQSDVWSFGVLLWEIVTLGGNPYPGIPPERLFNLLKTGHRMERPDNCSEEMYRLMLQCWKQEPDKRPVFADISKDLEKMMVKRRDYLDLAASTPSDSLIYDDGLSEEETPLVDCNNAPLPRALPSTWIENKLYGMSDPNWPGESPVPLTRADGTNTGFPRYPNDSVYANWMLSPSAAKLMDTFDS

[5] = target: Serine/threonine-protein kinase SIK1 (Homo sapiens) (UniProt P57059); experiment: Inhibition of SIK (unknown origin) assessed as residual activity at 100 nM by KINOMEscan analysis relative to control
Serine/threonine-protein kinase SIK1 (Homo sapiens), sequence (P57059 whole entry): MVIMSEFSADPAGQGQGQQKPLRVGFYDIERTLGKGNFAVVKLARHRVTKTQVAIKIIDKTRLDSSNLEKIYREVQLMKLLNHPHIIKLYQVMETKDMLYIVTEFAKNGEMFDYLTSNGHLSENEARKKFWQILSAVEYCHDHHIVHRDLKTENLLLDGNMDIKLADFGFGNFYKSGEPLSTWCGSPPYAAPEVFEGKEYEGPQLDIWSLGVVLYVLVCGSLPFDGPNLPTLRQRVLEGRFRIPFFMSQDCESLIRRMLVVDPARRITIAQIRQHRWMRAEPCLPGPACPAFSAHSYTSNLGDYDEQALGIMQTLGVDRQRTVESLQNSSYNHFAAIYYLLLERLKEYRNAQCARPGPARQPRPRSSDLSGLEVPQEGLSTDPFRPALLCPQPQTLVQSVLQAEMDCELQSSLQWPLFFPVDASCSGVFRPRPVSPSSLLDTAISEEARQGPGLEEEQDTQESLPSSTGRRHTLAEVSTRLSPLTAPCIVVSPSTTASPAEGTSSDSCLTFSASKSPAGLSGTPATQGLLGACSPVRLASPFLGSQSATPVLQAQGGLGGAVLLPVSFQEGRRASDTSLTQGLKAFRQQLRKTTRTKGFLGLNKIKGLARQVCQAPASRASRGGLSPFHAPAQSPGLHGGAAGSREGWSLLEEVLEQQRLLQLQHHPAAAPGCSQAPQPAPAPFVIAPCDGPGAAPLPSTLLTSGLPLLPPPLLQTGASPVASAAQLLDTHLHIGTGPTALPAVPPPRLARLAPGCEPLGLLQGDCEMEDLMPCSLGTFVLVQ

[6] = target: T3, Serine/threonine-protein kinase TAO1 (Homo sapiens) (UniProt Q7L7X3); experiment: Inhibition of TAOK1 (unknown origin) assessed as residual activity at 100 nM by KINOMEscan analysis relative to control
T3 sequence (whole entry): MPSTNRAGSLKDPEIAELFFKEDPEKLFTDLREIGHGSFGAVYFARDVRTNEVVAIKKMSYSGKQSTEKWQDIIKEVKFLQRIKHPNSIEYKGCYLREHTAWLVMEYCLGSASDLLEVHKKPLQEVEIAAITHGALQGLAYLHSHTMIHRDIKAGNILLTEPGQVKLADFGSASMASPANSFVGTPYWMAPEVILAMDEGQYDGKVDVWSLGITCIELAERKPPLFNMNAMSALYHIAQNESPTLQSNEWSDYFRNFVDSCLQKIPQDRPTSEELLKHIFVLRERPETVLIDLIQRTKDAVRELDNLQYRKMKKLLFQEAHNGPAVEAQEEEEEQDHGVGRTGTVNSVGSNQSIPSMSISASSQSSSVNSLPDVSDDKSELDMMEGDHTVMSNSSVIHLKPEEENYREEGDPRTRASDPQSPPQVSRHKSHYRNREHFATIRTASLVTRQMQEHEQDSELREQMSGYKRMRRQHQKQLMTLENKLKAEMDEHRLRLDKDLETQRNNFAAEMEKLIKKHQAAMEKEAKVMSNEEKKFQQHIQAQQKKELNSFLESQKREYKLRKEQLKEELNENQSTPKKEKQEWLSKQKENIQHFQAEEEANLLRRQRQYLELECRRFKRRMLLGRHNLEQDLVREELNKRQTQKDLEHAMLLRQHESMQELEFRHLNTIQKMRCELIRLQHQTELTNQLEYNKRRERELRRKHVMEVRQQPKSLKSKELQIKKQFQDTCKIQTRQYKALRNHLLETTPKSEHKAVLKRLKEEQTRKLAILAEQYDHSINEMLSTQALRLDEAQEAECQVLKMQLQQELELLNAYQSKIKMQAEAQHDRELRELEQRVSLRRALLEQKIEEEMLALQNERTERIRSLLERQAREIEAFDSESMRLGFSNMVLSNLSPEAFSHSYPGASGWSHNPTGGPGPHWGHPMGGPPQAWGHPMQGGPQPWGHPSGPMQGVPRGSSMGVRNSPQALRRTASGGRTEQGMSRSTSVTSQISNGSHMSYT

Receptor tyrosine-protein kinase erbB-3 (Homo sapiens), sequence (P21860 whole entry): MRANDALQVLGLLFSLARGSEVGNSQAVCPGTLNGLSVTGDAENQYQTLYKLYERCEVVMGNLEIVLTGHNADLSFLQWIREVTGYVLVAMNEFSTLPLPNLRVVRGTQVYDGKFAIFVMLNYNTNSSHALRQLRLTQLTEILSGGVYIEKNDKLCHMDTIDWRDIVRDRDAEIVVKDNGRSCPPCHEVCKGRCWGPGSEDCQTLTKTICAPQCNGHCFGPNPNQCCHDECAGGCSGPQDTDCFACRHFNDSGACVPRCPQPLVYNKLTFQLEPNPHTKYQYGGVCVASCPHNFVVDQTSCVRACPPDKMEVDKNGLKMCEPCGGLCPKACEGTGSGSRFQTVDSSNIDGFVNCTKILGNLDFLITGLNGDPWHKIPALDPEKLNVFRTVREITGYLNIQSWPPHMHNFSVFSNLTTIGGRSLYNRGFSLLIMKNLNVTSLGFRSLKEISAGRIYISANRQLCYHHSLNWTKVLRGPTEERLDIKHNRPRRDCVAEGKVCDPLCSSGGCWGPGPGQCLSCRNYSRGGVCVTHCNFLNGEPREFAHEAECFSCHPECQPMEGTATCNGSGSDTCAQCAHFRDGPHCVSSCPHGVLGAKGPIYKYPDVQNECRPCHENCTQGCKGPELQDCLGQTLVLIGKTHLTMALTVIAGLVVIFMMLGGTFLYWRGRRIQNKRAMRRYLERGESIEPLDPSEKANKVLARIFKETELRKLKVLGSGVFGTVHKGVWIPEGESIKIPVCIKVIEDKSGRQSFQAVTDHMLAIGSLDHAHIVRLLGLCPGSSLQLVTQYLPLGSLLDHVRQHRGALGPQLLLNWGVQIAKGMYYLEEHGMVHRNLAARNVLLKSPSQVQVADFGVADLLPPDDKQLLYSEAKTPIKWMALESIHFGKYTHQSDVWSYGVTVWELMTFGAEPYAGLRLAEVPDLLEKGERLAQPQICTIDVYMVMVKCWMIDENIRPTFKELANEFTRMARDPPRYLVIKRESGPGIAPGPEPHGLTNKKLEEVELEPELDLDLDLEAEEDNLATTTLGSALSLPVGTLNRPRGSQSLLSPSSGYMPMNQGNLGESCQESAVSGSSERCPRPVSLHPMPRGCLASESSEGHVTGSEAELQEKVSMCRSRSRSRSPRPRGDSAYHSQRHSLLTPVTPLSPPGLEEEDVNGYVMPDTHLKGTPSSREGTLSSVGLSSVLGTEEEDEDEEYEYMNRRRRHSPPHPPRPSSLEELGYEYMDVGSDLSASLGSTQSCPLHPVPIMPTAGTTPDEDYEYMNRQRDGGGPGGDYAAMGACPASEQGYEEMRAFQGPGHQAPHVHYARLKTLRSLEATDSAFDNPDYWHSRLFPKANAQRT

Q: With `COc1cc2ncnc(N[C@H](C)c3cccc4ccccc34)c2cc1OC` as the compound, how does the Activity [1] read?
A: 89%

Q: What about the Activity [2] of the same compound?
A: 90%

Q: What about the Activity [3] of the same compound?
A: 79%

Q: What about the Activity [4] of the same compound?
A: 86%

Q: What about the Activity [5] of the same compound?
A: 85%

Q: And the Activity [6]?
A: 88%

Source: ChEMBL document CHEMBL5678818, “Discovery of potent SOS1 inhibitors that block RAS activation via disruption of the RAS-SOS1 interaction” (Proc Natl Acad Sci U S A, 2019)
